Data from US10508120B2, “TYK2 inhibitors and uses thereof” (Nimbus Lakshmi, Inc., priority 2017, dated 2019).
Where two headings read alike, the source gives them in different places.

Legend:
Tyk2 kinase domain (DH1) = Tyk2 kinase domain (DH1) (Homo sapiens (Human), UniProt P29597); assay: Tyk2 Radioactive Kinase Assay; format: biochemical; settings: for inhibition at 10 µM: read-out: Tyk2 JH1% Inhibition @ 10 μM
Experimental: (§1) The Tyk2 and JAK2 radioactive kinase assay measures the percent inhibition at the Tyk2 kinase domain (DH1) and the percent inhibition at the JAK2 kinase domain (JH1). Results of the assay are expressed as percent inhibition at 10 μM.

JAK2 kinase domain (JH1) = JAK2 kinase domain (JH1) (Homo sapiens (Human), UniProt O60674); assay: JAK2 Radioactive Kinase Assay; format: biochemical; settings: for inhibition at 10 µM: read-out: JAK2 JH1% Inhibition @ 10 μM
Chain of JAK2 kinase domain (JH1) (O60674 849-1124): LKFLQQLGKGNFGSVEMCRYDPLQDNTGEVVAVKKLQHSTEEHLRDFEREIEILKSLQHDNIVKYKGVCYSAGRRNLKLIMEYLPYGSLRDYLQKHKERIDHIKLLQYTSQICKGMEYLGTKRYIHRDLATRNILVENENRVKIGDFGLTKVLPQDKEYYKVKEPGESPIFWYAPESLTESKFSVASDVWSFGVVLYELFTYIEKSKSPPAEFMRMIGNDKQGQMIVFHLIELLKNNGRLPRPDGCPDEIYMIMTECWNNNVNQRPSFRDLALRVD
Experimental: as §1

Chain of Tyk2 kinase domain (DH1) (P29597 897-1176): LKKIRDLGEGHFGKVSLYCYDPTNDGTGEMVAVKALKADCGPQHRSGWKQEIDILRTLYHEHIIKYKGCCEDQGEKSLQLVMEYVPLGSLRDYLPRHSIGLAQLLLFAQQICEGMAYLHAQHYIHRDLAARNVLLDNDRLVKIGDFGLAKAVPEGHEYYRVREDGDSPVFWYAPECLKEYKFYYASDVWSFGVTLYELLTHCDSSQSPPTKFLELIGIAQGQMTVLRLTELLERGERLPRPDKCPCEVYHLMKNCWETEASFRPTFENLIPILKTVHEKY

inhibition at 10 µM (JAK2 kinase domain (JH1); 10 μM compound, 10 μM ATP)	SMILES	Tyk2 JH1% Inhibition @ 10 μM (Tyk2 kinase domain (DH1); compound at 10 μM, ATP 10 μM)	JAK2 JH1% Inhibition @ 10 μM (JAK2 kinase domain (JH1); compound at 10 μM, ATP 10 μM)	further results
–	CNc1cc(-c2cn(C(C)C)c3ncccc23)nc2c(C(=O)N[C@@H]3C[C@H]3O)cnn12 (stereo in doubt) [I-732, N-((1R,2R)-2-hydroxycyclopropyl)-5-(1-isopropyl-1H-pyrrolo[2,3-b]pyridin-3-yl)-7-(methylamino)pyrazolo[1,5-a]pyrimidine-3-carboxamide]	A (percent inhibition at 10 μM lower than 50)	A (percent inhibition at 10 μM lower than 50)	–
–	CNc1cc(Nc2cccnc2OC)nc2c(C(=O)N[C@@H]3CCC[C@H]3O)cnn12 [I-448, (R)—N-((1R,2R)-2-hydroxycyclopentyl)-5-((2-methoxypyridin-3-yl)amino)-7-(methylamino)pyrazolo[1,5-a]pyrimidine-3-carboxamide]	A (percent inhibition at 10 μM lower than 50)	A (percent inhibition at 10 μM lower than 50)	–
–	CNc1cc(Nc2cccnc2OC2CC2)nc2c(C(=O)N[C@H]3CC[C@H](O)C3)cnn12 [I-489, 5-((2-cyclopropoxypyridin-3-yl)amino)-N-((1S,3S)-3-hydroxycyclopentyl)-7-(methylamino)pyrazolo[1,5-a]pyrimidine-3-carboxamide]	A (percent inhibition at 10 μM lower than 50)	A (percent inhibition at 10 μM lower than 50)	–
–	CNc1cc(Nc2cccn(C3CCOCC3)c2=O)nc2c(C(=O)N[C@H]3CC[C@@H]3O)cnn12 [I-596]	A (percent inhibition at 10 μM lower than 50)	A (percent inhibition at 10 μM lower than 50)	–
–	CNc1cc(Nc2cccn([C@H]3CC[C@H](OC)CC3)c2=O)nc2c(C(=O)N[C@H]3CC[C@@H]3O)cnn12 [I-636]	A (percent inhibition at 10 μM lower than 50)	A (percent inhibition at 10 μM lower than 50)	–
–	CNc1cc(Nc2cccc([C@@H]3CCCCO3)n2)nc2c(C(=O)N[C@@H]3CC[C@@H]3O)cnn12 [I-646]	A (percent inhibition at 10 μM lower than 50)	A (percent inhibition at 10 μM lower than 50)	–
–	CNc1cc(Nc2cccc([C@H]3CCCOC3)n2)nc2c(C(=O)N[C@H]3CC[C@@H]3O)cnn12 [I-666]	A (percent inhibition at 10 μM lower than 50)	A (percent inhibition at 10 μM lower than 50)	–
–	CNc1cc(Nc2cccn([C@H]3CCN(C)C[C@@H]3F)c2=O)nc2c(C(=O)NC3CC3)cnn12 [I-685]	A (percent inhibition at 10 μM lower than 50)	A (percent inhibition at 10 μM lower than 50)	–
–	CNc1cc(Nc2cccn([C@H]3CCCOC3)c2=O)nc2c(C(=O)N[C@H]3CC[C@@H]3O)cnn12 [I-724]	A (percent inhibition at 10 μM lower than 50)	A (percent inhibition at 10 μM lower than 50)	–
–	CNc1cc(Nc2cccn([C@@H]3CCCOC3)c2=O)nc2c(C(=O)N[C@H]3CC[C@@H]3O)cnn12 [I-726]	A (percent inhibition at 10 μM lower than 50)	A (percent inhibition at 10 μM lower than 50)	–
–	CNc1cc(Nc2cccn(-c3nc(C)co3)c2=O)nc2c(C(=O)N[C@H]3CC[C@@H]3O)cnn12 [I-769]	A (percent inhibition at 10 μM lower than 50)	A (percent inhibition at 10 μM lower than 50)	–
–	CNc1cc(Nc2cccn([C@@H]3CCCOC3)c2=O)nc2c(C(=O)N[C@@H]3CCC[C@@H](O)C3)cnn12 [I-780]	A (percent inhibition at 10 μM lower than 50)	A (percent inhibition at 10 μM lower than 50)	–
–	CNc1cc(Nc2cccn([C@@H]3CCCOC3)c2=O)nc2c(C(=O)N[C@H]3COC[C@H]3O)cnn12 [I-786]	A (percent inhibition at 10 μM lower than 50)	A (percent inhibition at 10 μM lower than 50)	–
–	CNc1cc(Nc2cccn([C@@H]3CC[C@H]3O)c2=O)nc2c(C(=O)NC3CC3)cnn12 [I-802]	A (percent inhibition at 10 μM lower than 50)	A (percent inhibition at 10 μM lower than 50)	–
–	CNc1cc(Nc2cccn([C@H]3CCCOC3)c2=O)nc2c(C(=O)N[C@H]3CC[C@H]3O)cnn12 [I-803]	A (percent inhibition at 10 μM lower than 50)	A (percent inhibition at 10 μM lower than 50)	–
< 50%	CNc1cc(Nc2cccn([C@H]3CCC[C@H](O)C3)c2=O)nc2c(C(=O)NC3CC3)cnn12 [I-821]	–	–	inhibition at 10 µM (Tyk2 kinase domain (DH1); 10 μM compound, 10 μM ATP): < 50%
< 50%	CNc1cc(Nc2cc(Cl)cn(C3CCOCC3)c2=O)nc2c(C(=O)N[C@H]3CC[C@@H]3O)cnn12 [I-826]	–	–	inhibition at 10 µM (Tyk2 kinase domain (DH1); 10 μM compound, 10 μM ATP): < 50%
< 50%	CNc1cc(Nc2cccc(N3CCO[C@@]4(CCOC4)C3)n2)nc2c(C(=O)NC3CC3)cnn12 [I-828]	–	–	inhibition at 10 µM (Tyk2 kinase domain (DH1); 10 μM compound, 10 μM ATP): < 50%
< 50%	CNc1cc(-c2cn(CCN3CCOCC3)c3ncccc23)nc2c(C(=O)N[C@@H]3CC[C@H]3O)cnn12 [I-835]	–	–	inhibition at 10 µM (Tyk2 kinase domain (DH1); 10 μM compound, 10 μM ATP): < 50%

inhibition at 10 µM (JAK2 kinase domain (JH1); 10 μM compound, 10 μM ATP)	SMILES	Tyk2 JH1% Inhibition @ 10 μM (Tyk2 kinase domain (DH1); compound at 10 μM, ATP 10 μM)	JAK2 JH1% Inhibition @ 10 μM (JAK2 kinase domain (JH1); compound at 10 μM, ATP 10 μM)	further results
< 50%	CNc1cc(Nc2cccn([C@H]3CCC[C@@H](OC)C3)c2=O)nc2c(C(=O)N[C@@H]3C[C@@H]3F)cnn12 [I-839]	–	–	inhibition at 10 µM (Tyk2 kinase domain (DH1); 10 μM compound, 10 μM ATP): < 50%
< 50%	CNc1cc(Nc2cccn(-c3cccnc3C)c2=O)nc2c(C(=O)N[C@H]3CC[C@@H]3OC)cnn12 [I-865]	–	–	–
< 50%	CNc1cc(Nc2cccn([C@@H]3C[C@H]3F)c2=O)nc2c(C(=O)NC3CC3)cnn12 [I-866]	–	–	inhibition at 10 µM (Tyk2 kinase domain (DH1); 10 μM compound, 10 μM ATP): < 50%
< 50%	CNc1cc(Nc2cccn(C3CC4(COC4)C3)c2=O)nc2c(C(=O)N[C@H]3CC[C@H]3O)cnn12 [I-870]	–	–	inhibition at 10 µM (Tyk2 kinase domain (DH1); 10 μM compound, 10 μM ATP): < 50%
–	CNc1cc(Nc2cccn([C@H]3CCCOC3)c2=O)nc2c(C(=O)N[C@@H]3CC[C@H]3OC)cnn12 [I-876]	–	–	JAK2 JH1% Inhibition @ 10 μM (JAK2 kinase domain (JH1); 10 μM compound, 10 μM ATP): A (percent inhibition at 10 μM lower than 50)
–	CNc1cc(Nc2cccn(C3CCN(CCF)CC3)c2=O)nc2c(C(=O)N[C@H]3CC[C@H]3O)cnn12 [I-896]	–	–	Tyk2 JH1% Inhibition @ 10 μM (Tyk2 kinase domain (DH1); 10 μM compound, 10 μM ATP): A (percent inhibition at 10 μM lower than 50); JAK2 JH1% Inhibition @ 10 μM (JAK2 kinase domain (JH1); 10 μM compound, 10 μM ATP): A (percent inhibition at 10 μM lower than 50)
–	CNc1cc(Nc2cccn(C3CCN(CCF)CC3)c2=O)nc2c(C(=O)N[C@@H]3CC[C@H]3O)cnn12 [I-898]	–	–	Tyk2 JH1% Inhibition @ 10 μM (Tyk2 kinase domain (DH1); 10 μM compound, 10 μM ATP): A (percent inhibition at 10 μM lower than 50); JAK2 JH1% Inhibition @ 10 μM (JAK2 kinase domain (JH1); 10 μM compound, 10 μM ATP): A (percent inhibition at 10 μM lower than 50)
< 50%	CNc1cc(Nc2cccn([C@@H]3CCCOC3)c2=O)nc2c(C(=O)N[C@H]3CC[C@@H]3OC)cnn12 [I-903, N-((1S,2S)-2-methoxycyclobutyl)-7-(methylamino)-5-((2-oxo-1-((R)-tetrahydro-2H-pyran-3-yl)-1,2-dihydropyridin-3-yl)amino)pyrazolo[1,5-a]pyrimidine-3-carboxamide]	–	–	–
–	CNc1cc(-c2cn(CCN3CCN(C)CC3)c3ncccc23)nc2c(C(=O)N[C@H]3CC[C@H]3O)cnn12 [I-906, N-((1S,2R)-2-hydroxycyclobutyl)-7-(methylamino)-5-(1-(2-(4-methylpiperazin-1-yl)ethyl)-1H-pyrrolo[2,3-b]pyridin-3-yl)pyrazolo[1,5-a]pyrimidine-3-carboxamide]	–	–	Tyk2 JH1% Inhibition @ 10 μM (Tyk2 kinase domain (DH1); 10 μM compound, 10 μM ATP): A (percent inhibition at 10 μM lower than 50); JAK2 JH1% Inhibition @ 10 μM (JAK2 kinase domain (JH1); 10 μM compound, 10 μM ATP): A (percent inhibition at 10 μM lower than 50)
–	CNc1cc(Nc2cccn(-c3ccccn3)c2=O)nc2c(C(=O)N[C@H]3CC[C@@H]3OC)cnn12 [I-909, N-((1S,2S)-2-methoxycyclobutyl)-7-(methylamino)-5-((2-oxo-2H-[1,2′-bipyridin]-3-yl)amino)pyrazolo[1,5-a]pyrimidine-3-carboxamide]	–	–	inhibition at 10 µM (Tyk2 kinase domain (DH1)): < 50%; inhibition at 10 µM (JAK2 kinase domain (JH1)): < 50%
–	CNc1cc(Nc2cccn(C(C)C)c2=O)nc2c(C(=O)N[C@H]3CCC[C@H](O)C3)cnn12 [I-919, 5-N-(3-hydroxycyclohexyl)-5-((1-isopropyl-2-oxo-1,2-dihydropyridin-3-yl)amino)-7-(methylamino)pyrazolo[1,5-a]pyrimidine-3-carboxamide]	–	–	Tyk2 JH1% Inhibition @ 10 μM (Tyk2 kinase domain (DH1); 10 μM compound, 10 μM ATP): A (percent inhibition at 10 μM lower than 50); JAK2 JH1% Inhibition @ 10 μM (JAK2 kinase domain (JH1); 10 μM compound, 10 μM ATP): A (percent inhibition at 10 μM lower than 50)
–	CNc1cc(-c2cn(CCN3CCN(C)CC3)c3ncccc23)nc2c(C(=O)N[C@H]3CC[C@@H]3O)cnn12 [I-920, N-((1S,2S)-2-hydroxycyclobutyl)-7-(methylamino)-5-(1-(2-(4-methylpiperazin-1-yl)ethyl)-1H-pyrrolo[2,3-b]pyridin-3-yl)pyrazolo[1,5-a]pyrimidine-3-carboxamide]	–	–	Tyk2 JH1% Inhibition @ 10 μM (Tyk2 kinase domain (DH1); 10 μM compound, 10 μM ATP): A (percent inhibition at 10 μM lower than 50); JAK2 JH1% Inhibition @ 10 μM (JAK2 kinase domain (JH1); 10 μM compound, 10 μM ATP): A (percent inhibition at 10 μM lower than 50)
–	CNc1cc(Nc2cccn(-c3cccnc3C)c2=O)nc2c(C(=O)N[C@H]3CC[C@@H]3OC)cnn12 [I-924]	–	–	JAK2 JH1% Inhibition @ 10 μM (JAK2 kinase domain (JH1); 10 μM compound, 10 μM ATP): A (percent inhibition at 10 μM lower than 50)
< 50%	CNc1cc(Nc2cccn(-c3cccnc3C)c2=O)nc2c(C(=O)N[C@@H]3CC[C@H]3OC)cnn12 [I-925]	–	–	–
–	CNc1cc(Nc2cccn([C@H]3CC[C@@H]3OC)c2=O)nc2c(C(=O)NC3CC3)cnn12 [I-936]	–	–	Tyk2 JH1% Inhibition @ 10 μM (Tyk2 kinase domain (DH1); 10 μM compound, 10 μM ATP): A (percent inhibition at 10 μM lower than 50); JAK2 JH1% Inhibition @ 10 μM (JAK2 kinase domain (JH1); 10 μM compound, 10 μM ATP): A (percent inhibition at 10 μM lower than 50)
–	CNc1cc(Nc2cccn(-c3ccccc3F)c2=O)nc2c(C(=O)N[C@H]3CC[C@H]3O)cnn12 [I-939]	–	–	Tyk2 JH1% Inhibition @ 10 μM (Tyk2 kinase domain (DH1); 10 μM compound, 10 μM ATP): A (percent inhibition at 10 μM lower than 50); JAK2 JH1% Inhibition @ 10 μM (JAK2 kinase domain (JH1); 10 μM compound, 10 μM ATP): A (percent inhibition at 10 μM lower than 50)
< 50%	CNc1cc(Nc2cccn(-c3cncc(F)c3)c2=O)nc2c(C(=O)N[C@H]3CC[C@@H]3OC)cnn12 [I-1084]	–	–	–
< 50%	CNc1cc(Nc2cccn(-c3cncc(F)c3)c2=O)nc2c(C(=O)N[C@@H]3CC[C@H]3OC)cnn12 [I-1085]	–	–	–
